Test results taken from patent publication US9738902B2, “Modified PYR/PYL receptors activated by ligands” (priority 2013, dated 2017).

Legend:
Assay type in all cases: cell-based
PYR1 K59R E141Y A160G = molecular target: T1, PYR1 K59R E141Y A160G (Arabidopsis thaliana, UniProt O49686, A160G/E141Y/K59R); test: Y2H Combinatorial Mutagenesis Screen I (HAB1, X-gal)
T1 construct: expressed in transfected cells; host or cells: S. cerevisiae Y190 two-hybrid reporter strain
Excerpt: (§1) This screening approach yielded mutants at ligand contacting residues that alter sensitivity to specific ligands. We reasoned that receptor sensitivity could be improved by systematically constructing combinations of the best mutant variants identified in the first round of screening. To test this, we constructed mutant combinations using the strongest mutations identified for mandipropamid, benzothiadiazole, benoxacor or fludioxonil sensitivity. The mutations selected for combinatorial mutagenesis are listed in bold type in Table 1; The mutant combinations were constructed using the QuickChange Lightning Multi Site-Directed PCR Mutagenesis kit (Agilent, USA) using pBD-PYR1^K59R template DNA and mutagenic primers, essentially as previously described (Mosquna et al., 2011). The mutant combinations were sequence validated, introduced into the pACT-HAB1 Y190 reporter strain and then tested for responsiveness to a range of compound concentrations (100, 50, 25, 10, 1, 0.2, 0.1 or 0 μM each test compound). These efforts yielded double mutant receptor variants with improved sensitivity for the 4 compound/receptor pairs examined (see entries labeled “Combinatorial Mutagenesis Screen I” in Table 1).

PYR1 K59R A89C V164K = molecular target: T2, PYR1 K59R A89C V164K (Arabidopsis thaliana, UniProt O49686, A89C/K59R/V164K); test: as above
T2 construct: expressed in transfected cells; host or cells: S. cerevisiae Y190 two-hybrid reporter strain
Excerpt: as §1

PYR1 K59R A160G L117C = molecular target: T3, PYR1 K59R A160G L117C (Arabidopsis thaliana, UniProt O49686, A160G/K59R/L117C); test: as above
T3 construct: expressed in transfected cells; host or cells: S. cerevisiae Y190 two-hybrid reporter strain
Excerpt: as §1

PYR1 K59R L117C V164K = molecular target: T4, PYR1 K59R L117C V164K (Arabidopsis thaliana, UniProt O49686, K59R/L117C/V164K); test: as above
T4 construct: expressed in transfected cells; host or cells: S. cerevisiae Y190 two-hybrid reporter strain
Excerpt: as §1

PYR1 K59R A89C A160G = molecular target: T5, PYR1 K59R A89C A160G (Arabidopsis thaliana, UniProt O49686, A160G/A89C/K59R); test: as above
T5 construct: expressed in transfected cells; host or cells: S. cerevisiae Y190 two-hybrid reporter strain
Excerpt: as §1

PYR1 K59R A89C E141Y = molecular target: T6, PYR1 K59R A89C E141Y (Arabidopsis thaliana, UniProt O49686, A89C/E141Y/K59R); test: as above
T6 construct: expressed in transfected cells; host or cells: S. cerevisiae Y190 two-hybrid reporter strain
Excerpt: as §1

PYR1 K59R A160G V164K = molecular target: T7, PYR1 K59R A160G V164K (Arabidopsis thaliana, UniProt O49686, A160G/K59R/V164K); test: as above
T7 construct: expressed in transfected cells; host or cells: S. cerevisiae Y190 two-hybrid reporter strain
Excerpt: as §1

PYR1 K59R A89C L117C = molecular target: T8, PYR1 K59R A89C L117C (Arabidopsis thaliana, UniProt O49686, A89C/K59R/L117C); test: as above
T8 construct: expressed in transfected cells; host or cells: S. cerevisiae Y190 two-hybrid reporter strain
Excerpt: as §1

PYR1 K59R A160G = molecular target: T9, PYR1 K59R A160G (Arabidopsis thaliana, UniProt O49686, A160G/K59R); test: Y2H Pocket Library Screen (HAB1, X-gal)
T9 construct: expressed in transfected cells; host or cells: S. cerevisiae Y190
Method: (§2) The set of 475 mutant plasmids were individually transformed into the Y190 yeast two hybrid reporter strain co-transformed with pACT-HAB1, as previously described (Park et al., 2009). The yeast strains generated were arrayed into 96-well plates yielding what we refer to as the “pocket library”. The pocket library strains were spotted onto agar plates containing selective synthetic dextrose (minus Leu & Trp) medium that was supplemented with a single test compound at 100 μM. The pocket library strains were separately tested for responsiveness to the following compounds: dichlobenil, benzothiadiazole, mandipropamid, fludioxonil, and benoxacor. After incubating test plates at 30° C. for two days, colonies were chloroform lysed and stained to reveal β-galactosidase expression levels, using previously described methods (Park et al., 2009). Mutants displaying responsiveness to the test compound, if present, were identified by virtue of X-gal staining and then subjected to subsequent optimization efforts. Using this approach we identified mutations that conferred detectable sensitivity to the compounds tested (see entries labeled “Pocket Library Screens” in Table 1).

PYR1 K59R V83L = molecular target: T10, PYR1 K59R V83L (Arabidopsis thaliana, UniProt O49686, K59R/V83L); test: Y2H Pocket Library Screen (HAB1, X-gal)
T10 construct: expressed in transfected cells; host or cells: S. cerevisiae Y190 yeast two-hybrid reporter strain
Method: as §2

PYR1 K59R M158T = molecular target: T11, PYR1 K59R M158T (Arabidopsis thaliana, UniProt O49686, K59R/M158T); test: Y2H Pocket Library Screen (HAB1, X-gal)
T11 construct: expressed in transfected cells; host or cells: S. cerevisiae Y190 two-hybrid reporter strain
Method: as §2

PYR1 K59R V164Y = molecular target: T12, PYR1 K59R V164Y (Arabidopsis thaliana, UniProt O49686, K59R/V164Y); test: Y2H Pocket Library Screen (HAB1, X-gal)
T12 construct: expressed in transfected cells; host or cells: S. cerevisiae Y190 two-hybrid reporter strain
Method: as §2

PYR1 K59R F159C = molecular target: T13, PYR1 K59R F159C (Arabidopsis thaliana, UniProt O49686, F159C/K59R); test: Y2H Pocket Library Screen (HAB1, X-gal)
T13 construct: expressed in transfected cells; host or cells: S. cerevisiae Y190 two-hybrid reporter strain
Method: as §2

PYR1 K59R E141Y = molecular target: T14, PYR1 K59R E141Y (Arabidopsis thaliana, UniProt O49686, E141Y/K59R); test: Y2H Pocket Library Screen (HAB1, X-gal)
T14 construct: expressed in transfected cells; host or cells: S. cerevisiae Y190 two-hybrid reporter strain
Method: as §2

PYR1 K59R M158C = molecular target: T15, PYR1 K59R M158C (Arabidopsis thaliana, UniProt O49686, K59R/M158C); test: Y2H Pocket Library Screen (HAB1, X-gal)
T15 construct: expressed in transfected cells; host or cells: S. cerevisiae Y190 two-hybrid reporter strain
Method: as §2

PYR1 K59R T162K = molecular target: T16, PYR1 K59R T162K (Arabidopsis thaliana, UniProt O49686, K59R/T162K); test: Y2H Pocket Library Screen (HAB1, X-gal)
T16 construct: expressed in transfected cells; host or cells: S. cerevisiae Y190
Method: as §2

PYR1 K59R F159A = molecular target: T17, PYR1 K59R F159A (Arabidopsis thaliana, UniProt O49686, F159A/K59R); test: Y2H Pocket Library Screen (HAB1, X-gal)
T17 construct: expressed in transfected cells; host or cells: S. cerevisiae Y190 two-hybrid reporter strain
Method: as §2

PYR1 K59R F159V = molecular target: T18, PYR1 K59R F159V (Arabidopsis thaliana, UniProt O49686, F159V/K59R); test: Y2H Pocket Library Screen (HAB1, X-gal)
T18 construct: expressed in transfected cells; host or cells: S. cerevisiae Y190
Method: as §2

PYR1 K59R L117C = molecular target: T19, PYR1 K59R L117C (Arabidopsis thaliana, UniProt O49686, K59R/L117C); test: Y2H Pocket Library Screen (HAB1, X-gal)
T19 construct: expressed in transfected cells; host or cells: S. cerevisiae Y190 two-hybrid reporter strain
Method: as §2

PYR1 K59R V81I = molecular target: T20, PYR1 K59R V81I (Arabidopsis thaliana, UniProt O49686, K59R/V81I); test: Y2H Pocket Library Screen (HAB1, X-gal)
T20 construct: expressed in transfected cells; host or cells: S. cerevisiae Y190 yeast two-hybrid reporter strain
Method: as §2

PYR1 K59R V164K = molecular target: T21, PYR1 K59R V164K (Arabidopsis thaliana, UniProt O49686, K59R/V164K); test: Y2H Pocket Library Screen (HAB1, X-gal)
T21 construct: expressed in transfected cells; host or cells: S. cerevisiae Y190
Method: as §2

PYR1 K59R F159T = molecular target: T22, PYR1 K59R F159T (Arabidopsis thaliana, UniProt O49686, F159T/K59R); test: Y2H Pocket Library Screen (HAB1, X-gal)
T22 construct: expressed in transfected cells; host or cells: S. cerevisiae Y190
Method: as §2

PYR1 K59R A89C = molecular target: T23, PYR1 K59R A89C (Arabidopsis thaliana, UniProt O49686, A89C/K59R); test: Y2H Pocket Library Screen (HAB1, X-gal)
T23 construct: expressed in transfected cells; host or cells: S. cerevisiae Y190 yeast two-hybrid reporter strain
Method: as §2

PYR1 K59R F159M = molecular target: T24, PYR1 K59R F159M (Arabidopsis thaliana, UniProt O49686, F159M/K59R); test: Y2H Pocket Library Screen (HAB1, X-gal)
T24 construct: expressed in transfected cells; host or cells: S. cerevisiae Y190
Method: as §2

PYR1 K59R E141K = molecular target: T25, PYR1 K59R E141K (Arabidopsis thaliana, UniProt O49686, E141K/K59R); test: Y2H Pocket Library Screen (HAB1, X-gal)
T25 construct: expressed in transfected cells; host or cells: S. cerevisiae Y190 two-hybrid reporter strain
Method: as §2

PYR1 K59R M158I = molecular target: T26, PYR1 K59R M158I (Arabidopsis thaliana, UniProt O49686, K59R/M158I); test: Y2H Pocket Library Screen (HAB1, X-gal)
T26 construct: expressed in transfected cells; host or cells: S. cerevisiae Y190 two-hybrid reporter strain
Method: as §2

PYR1 K59R M158V = molecular target: T27, PYR1 K59R M158V (Arabidopsis thaliana, UniProt O49686, K59R/M158V); test: Y2H Pocket Library Screen (HAB1, X-gal)
T27 construct: expressed in transfected cells; host or cells: S. cerevisiae Y190 two-hybrid reporter strain
Method: as §2

PYR1 K59R F159L = molecular target: T28, PYR1 K59R F159L (Arabidopsis thaliana, UniProt O49686, F159L/K59R); test: Y2H Pocket Library Screen (HAB1, X-gal)
T28 construct: expressed in transfected cells; host or cells: S. cerevisiae Y190
Method: as §2

PYR1 K59R F159I = molecular target: T29, PYR1 K59R F159I (Arabidopsis thaliana, UniProt O49686, F159I/K59R); test: Y2H Pocket Library Screen (HAB1, X-gal)
T29 construct: expressed in transfected cells; host or cells: S. cerevisiae Y190 two-hybrid reporter strain
Method: as §2

PYR1 K59R T162W = molecular target: T30, PYR1 K59R T162W (Arabidopsis thaliana, UniProt O49686, K59R/T162W); test: Y2H Pocket Library Screen (HAB1, X-gal)
T30 construct: expressed in transfected cells; host or cells: S. cerevisiae Y190
Method: as §2

PYR1 K59R T162Y = molecular target: T31, PYR1 K59R T162Y (Arabidopsis thaliana, UniProt O49686, K59R/T162Y); test: Y2H Pocket Library Screen (HAB1, X-gal)
T31 construct: expressed in transfected cells; host or cells: S. cerevisiae Y190
Method: as §2

T4 sequence (O49686 whole entry K59R/L117C/V164K): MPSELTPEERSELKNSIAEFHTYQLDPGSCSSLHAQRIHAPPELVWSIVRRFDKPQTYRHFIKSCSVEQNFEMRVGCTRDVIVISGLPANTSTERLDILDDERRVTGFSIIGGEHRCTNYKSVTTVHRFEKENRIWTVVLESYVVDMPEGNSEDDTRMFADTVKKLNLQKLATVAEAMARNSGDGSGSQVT
T4 sequence (Q9CAJ0 23-511, stated change not applied, further chain): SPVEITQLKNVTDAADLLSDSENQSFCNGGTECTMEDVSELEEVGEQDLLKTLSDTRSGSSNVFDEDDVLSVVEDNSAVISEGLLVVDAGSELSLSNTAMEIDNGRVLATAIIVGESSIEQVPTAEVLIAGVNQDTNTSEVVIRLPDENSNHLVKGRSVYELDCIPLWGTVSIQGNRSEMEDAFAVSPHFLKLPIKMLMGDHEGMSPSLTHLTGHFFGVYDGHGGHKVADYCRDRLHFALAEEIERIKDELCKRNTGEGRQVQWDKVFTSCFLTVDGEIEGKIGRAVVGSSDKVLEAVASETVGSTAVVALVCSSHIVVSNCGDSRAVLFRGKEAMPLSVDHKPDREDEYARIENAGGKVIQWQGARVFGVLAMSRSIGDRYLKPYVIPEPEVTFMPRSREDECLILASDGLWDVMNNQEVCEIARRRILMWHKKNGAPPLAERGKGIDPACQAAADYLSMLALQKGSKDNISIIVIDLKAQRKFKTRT
T28 sequence (O49686 whole entry K59R/F159L): as the sequence (O49686 whole entry K59R/L117C/V164K) above, with C117L, F159L, K164V counted along it
T28 sequence (Q9CAJ0 23-511, further chain): as the sequence (Q9CAJ0 23-511, stated change not applied, further chain) above
T10 sequence (O49686 whole entry K59R/V83L): as the sequence (O49686 whole entry K59R/L117C/V164K) above, with V83L, C117L, K164V counted along it
T10 sequence (Q9CAJ0 23-511, further chain): as the sequence (Q9CAJ0 23-511, stated change not applied, further chain) above
T2 sequence (O49686 whole entry K59R/A89C/V164K): as the sequence (O49686 whole entry K59R/L117C/V164K) above, with A89C, C117L counted along it
T2 sequence (Q9CAJ0 23-511, stated change not applied, further chain): as the sequence (Q9CAJ0 23-511, stated change not applied, further chain) above
T9 sequence (O49686 whole entry K59R/A160G): as the sequence (O49686 whole entry K59R/L117C/V164K) above, with C117L, A160G, K164V counted along it
T9 sequence (Q9CAJ0 23-511, further chain): as the sequence (Q9CAJ0 23-511, stated change not applied, further chain) above
T16 sequence (O49686 whole entry K59R/T162K): as the sequence (O49686 whole entry K59R/L117C/V164K) above, with C117L, T162K, K164V counted along it
T16 sequence (Q9CAJ0 23-511, further chain): as the sequence (Q9CAJ0 23-511, stated change not applied, further chain) above
T29 sequence (O49686 whole entry K59R/F159I): as the sequence (O49686 whole entry K59R/L117C/V164K) above, with C117L, F159I, K164V counted along it
T29 sequence (Q9CAJ0 23-511, further chain): as the sequence (Q9CAJ0 23-511, stated change not applied, further chain) above

c1ccc2snnc2c1 [Benzothiadiazole, benzothiadiazole]
Threshold (PYR1 K59R E141Y A160G): 5 µM | Threshold (PYR1 K59R A89C V164K): 0.2 µM | Threshold (PYR1 K59R A160G L117C): 25 µM | Threshold (PYR1 K59R L117C V164K): 100 µM | Threshold (PYR1 K59R A89C A160G): 5 µM | Threshold (PYR1 K59R A89C E141Y): 0.2 µM | Threshold (PYR1 K59R A160G V164K): 5 µM | Threshold (PYR1 K59R A89C L117C): 25 µM | Threshold (PYR1 K59R A160G): 100 µM | Threshold (PYR1 K59R V83L): 100 µM | Threshold (PYR1 K59R M158T): 100 µM | Threshold (PYR1 K59R V164Y): 100 µM | Threshold (PYR1 K59R F159C): 100 µM | Threshold (PYR1 K59R E141Y): 100 µM | Threshold (PYR1 K59R M158C): 100 µM | Threshold (PYR1 K59R T162K): 100 µM | Threshold (PYR1 K59R F159A): 100 µM | Threshold (PYR1 K59R F159V): 100 µM | Threshold (PYR1 K59R L117C): 100 µM | Threshold (PYR1 K59R V81I): 100 µM | Threshold (PYR1 K59R V164K): 100 µM | Threshold (PYR1 K59R F159T): 100 µM | Threshold (PYR1 K59R A89C): 100 µM | Threshold (PYR1 K59R F159M): 100 µM | Threshold (PYR1 K59R E141K): 100 µM | Threshold (PYR1 K59R M158I): 100 µM | Threshold (PYR1 K59R M158V): 100 µM | Threshold (PYR1 K59R F159L): 100 µM | Threshold (PYR1 K59R F159I): 100 µM | Threshold (PYR1 K59R T162W): 100 µM | Threshold (PYR1 K59R T162Y): 100 µM
